In patent US6855843B2, “Inhibitors of α4 mediated cell adhesion” (Tanabe Seiyaku Co., Ltd., priority 1998, dated 2005):

Assays:
[1] = target: T1, α4β7 (adhesion of RPMI cells to CS-1) (Homo sapiens, UniProt P13612+P26010); assay: RPMI-CS-1 cell adhesion assay; type: cell-based; settings: adhesion of RPMI B-cell line (expresses α4β7) to CS-1 peptide coated microwells; read-out: RPMI-CS-1 IC50 value range
T1 construct: endogenous in cells
T1 sequence (P13612 34-1032): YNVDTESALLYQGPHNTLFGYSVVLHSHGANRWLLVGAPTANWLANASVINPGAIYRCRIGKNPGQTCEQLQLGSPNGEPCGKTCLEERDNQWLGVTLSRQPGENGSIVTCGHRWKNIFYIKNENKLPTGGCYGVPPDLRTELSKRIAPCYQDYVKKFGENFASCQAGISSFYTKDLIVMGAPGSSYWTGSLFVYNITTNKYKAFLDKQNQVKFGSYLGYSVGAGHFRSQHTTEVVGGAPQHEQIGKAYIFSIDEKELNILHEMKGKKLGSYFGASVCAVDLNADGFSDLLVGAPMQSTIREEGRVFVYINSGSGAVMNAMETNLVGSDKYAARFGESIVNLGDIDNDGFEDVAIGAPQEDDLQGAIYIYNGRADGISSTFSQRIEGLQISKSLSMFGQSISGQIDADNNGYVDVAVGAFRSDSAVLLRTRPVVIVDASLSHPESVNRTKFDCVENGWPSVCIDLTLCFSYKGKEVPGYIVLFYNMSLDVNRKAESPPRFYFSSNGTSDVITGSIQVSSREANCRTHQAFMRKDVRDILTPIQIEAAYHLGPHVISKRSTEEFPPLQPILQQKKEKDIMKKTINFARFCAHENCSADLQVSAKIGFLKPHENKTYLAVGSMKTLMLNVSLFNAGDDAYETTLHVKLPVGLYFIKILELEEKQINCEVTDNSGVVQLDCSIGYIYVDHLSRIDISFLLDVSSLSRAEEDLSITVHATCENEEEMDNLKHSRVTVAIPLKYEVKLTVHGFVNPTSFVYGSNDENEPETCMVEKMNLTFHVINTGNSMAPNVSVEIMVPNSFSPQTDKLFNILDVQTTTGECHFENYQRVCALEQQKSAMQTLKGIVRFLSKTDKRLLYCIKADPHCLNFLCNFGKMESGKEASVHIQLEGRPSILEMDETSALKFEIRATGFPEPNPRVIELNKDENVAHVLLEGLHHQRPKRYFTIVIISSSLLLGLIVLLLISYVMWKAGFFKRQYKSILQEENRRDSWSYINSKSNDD
T1 sequence (P26010 20-798): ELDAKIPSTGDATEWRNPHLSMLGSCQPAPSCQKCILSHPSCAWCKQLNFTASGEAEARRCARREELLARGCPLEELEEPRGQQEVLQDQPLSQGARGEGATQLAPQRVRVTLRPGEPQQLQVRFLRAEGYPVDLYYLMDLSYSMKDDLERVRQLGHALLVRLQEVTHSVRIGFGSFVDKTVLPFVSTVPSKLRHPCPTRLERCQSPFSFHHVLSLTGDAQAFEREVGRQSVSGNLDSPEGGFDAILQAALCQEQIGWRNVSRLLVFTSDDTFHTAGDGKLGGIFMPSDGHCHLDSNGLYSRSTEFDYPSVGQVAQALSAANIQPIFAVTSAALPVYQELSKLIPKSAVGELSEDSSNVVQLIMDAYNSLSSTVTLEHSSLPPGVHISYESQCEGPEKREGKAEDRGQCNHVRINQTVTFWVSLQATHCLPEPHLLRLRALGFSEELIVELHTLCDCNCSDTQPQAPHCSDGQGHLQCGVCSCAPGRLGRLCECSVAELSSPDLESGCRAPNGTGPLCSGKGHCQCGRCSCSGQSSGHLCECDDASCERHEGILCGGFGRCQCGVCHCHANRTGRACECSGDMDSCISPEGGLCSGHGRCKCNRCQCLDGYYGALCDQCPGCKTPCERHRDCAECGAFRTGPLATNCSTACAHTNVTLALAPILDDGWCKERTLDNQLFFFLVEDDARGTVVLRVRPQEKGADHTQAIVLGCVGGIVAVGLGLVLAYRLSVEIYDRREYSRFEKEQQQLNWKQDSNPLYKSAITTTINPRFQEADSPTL

| SMILES | IC50 [1] [nM] | melting point [°C] |
| --- | --- | --- |
| COc1cccc(OC)c1-c1ccc(CC[C@H](NC(=O)c2c(Cl)cccc2Cl)C(=O)O)cc1 [Example 295, N-(2,6-Dichlorobenzoyl)-4-(2,6-dimethoxyphenyl)-L-homophenylalanine] | 1000 to 5000 | 105 to 107 |
| COc1cccc(OC)c1-c1ccc(C[C@H](NC(=S)c2c(Cl)cccc2Cl)C(=O)O)cc1 [Example 266, N-(2,6-Dichlorothiobenzoyl)-4-(2,6-dimethoxyphenyl)-L-phenylalanine] | < 300 | 180.4 |

Next, values leading:

| IC50 [1] [nM] | melting point [°C] | SMILES |
| --- | --- | --- |
| < 300 | 220 to 221 | COc1cccc(OC)c1-c1ccc(C[C@H](NC(=O)c2c(Cl)cc(NC(N)=O)cc2Cl)C(=O)O)cc1 [Example 204] |
| < 300 | 131 | COc1ccccc1-c1ccc(C[C@H](NC(=O)c2c(Cl)cccc2Cl)C(=O)O)cc1Cl [Example 336, N-(2,6-Dichlorobenzoyl)-3-chloro-4-(2-methoxyphenyl)-L-phenylalanine] |
| < 300 | 243 to 244 | COc1cc(NC(C)=O)cc(OC)c1-c1ccc(C[C@H](NC(=O)c2c(Cl)cccc2Cl)C(=O)O)cc1 [Example 159, N-(2,6-Dichlorobenzoyl)-4-(4-acetylamino-2,6-dimethoxyphenyl)-L-phenylalanine] |
